Measured values as given in the supplement of paper PMC3493320.

Tested on: NCI-H295R
Experiment: IC50 (antiproliferative, ATP content)
Conditions: 48 h
How it was run: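 In 1536-well plates, 1500 adrenocortical carcinoma cells per well were grown overnight in serum-free, ITS-supplemented DMEM before compounds were pin-transferred at 8 final concentrations (0.6 nM to 46 µM). After 48 h at 37 °C and 5% CO2, CellTiter-Glo luminescence was read following 20 min at room temperature and normalised to vehicle and positive-control wells. IC50 values came from logistic curve fits, with compounds lacking any concentration response listed as above the top dose.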

IC50 [µM]	SMILES
> 46	CCc1ncnc2cc(OC)c(OC)cc12
> 46	Cc1cccc(C)c1Nc1ncccc1C(=O)O
> 46	c1cccc2N\C=C/c12
> 46	CCN(CC)C(=S)[S-].[Na+]
> 46	CC(=O)Oc1c(C)c(C)c2c(c1C)CCC(C)(CCCC(C)CCCC(C)CCCC(C)C)O2 (stereo unspecified)
> 46	O=C([C@H](CC1=CN=CN1)N[C@]([C@H](CC2)NC2=O)=O)N(CCC3)[C@@H]3[C@](N)=O
> 46	CCOC(=O)COc1ccc2c(C)c(CCN(CC)CC)c(=O)oc2c1Cl.Cl
> 46	O=C3N1/C(=C(/C)CS[C@@H]1[C@@H]3NC(=O)[C@H](N)c2ccc(O)cc2)C(O)=O
> 46	O=C(C=Cc1ccccc1)NCCO
> 46	O=C(CCCN1CCC(O)(c2ccc(Br)cc2)CC1)c1ccc(F)cc1
> 46	O=C(O)CN(CCN(CC(=O)O)CC(=O)O)CCN(CC(=O)O)CC(=O)O
> 46	CCCCCCNC(=O)n1cc(F)c(=O)[nH]c1=O
> 46	Cc1ccc(S(=O)(=O)[N-]Cl)cc1.O.O.O.[Na+]
> 46	Cc1ncc(COP(=O)(O)O)c(CN)c1O
> 46	Cc1scc2c1N(C(=O)CN1CCN(C)CC1)c1ccccc1NC2=O
> 46	O=C1CCC(=O)N1CO
> 46	CCC1Nc2cc(Cl)c(S(N)(=O)=O)cc2S(=O)(=O)N1 (stereo unspecified)

IC50 [µM]	SMILES
> 46	CS(=O)(=O)OCCCCOS(C)(=O)=O
> 46	Cc1ccc(C)c(OCCCC(C)(C)C(=O)O)c1
> 46	O=C(CCBr)N1CCN(C(=O)CCBr)CC1
> 46	O=c1[nH]c(=O)c2ccccc2o1
> 46	Cc1c(C)n(CCN(C)C)c2ccc(C(=O)OCCN(C)C)cc12
> 46	[H][C@@]23N(CCC4=C3NC5=C4C=CC(OC)=C5)C[C@@]1([H])C[C@@H](OC(COC6=CC=C(OC)C=C6)=O)[C@H](OC)[C@@H]([C@@](OC)=O)[C@]([H])1C2
> 46	C[C@H](NCCc1ccc(O)cc1)[C@H](O)c1ccc(O)cc1.Cl
> 46	F\C1=C\N(C(=O)NC1=O)[C@@H]2O[C@H](C)[C@@H](O)[C@H]2O
> 46	O=C([O-])COc1nn(Cc2ccccc2)c2ccccc12.[Na+]
> 46	CC=CC=NNC(=O)c1ccncc1
> 46	CC1CC(OC(=O)C(O)c2ccccc2)CC(C)(C)C1 (stereo unspecified)
> 46	N[C@H](CC(=O)O)C(=O)O
> 46	Cl.Cn1ccc2cc3c(cc21)CCN3C(=O)Nc1cccnc1
> 46	CN(c1nccc(=O)[nH]1)C1CCN(c2nc3ccccc3n2Cc2ccc(F)cc2)CC1
> 46	CCCCc1nc(Cl)c(CO)n1Cc1ccc(-c2ccccc2-c2nnn[nH]2)cc1
> 46	C[C@]12CC[C@@H]3c4ccc(OC(=O)c5ccccc5)cc4CC[C@H]3[C@@H]1CC[C@@H]2O

The remaining lines, values behind:

SMILES	IC50 [µM]
O=[N+]([O-])O[C@H]1CO[C@H]2[C@@H]1OC[C@H]2O[N+](=O)[O-]	> 46
CN1CCN(c2c(F)cc3c(=O)c(C(=O)O)cn4c3c2OCN4C)CC1	> 46
CCC1(c2ccccc2)CCC(=O)NC1=O (stereo unspecified)	> 46
CN(C)CCCOc1nn(Cc2ccccc2)c2ccccc12.Cl	> 46
CN1CCC\C(C1)=C(/C2=CC=CS2)C3=CC=CS3	> 46
Cc1c(Cl)cccc1Nc1ncccc1C(=O)O	> 46
O=[C@](O)[C@@]3(C)[C@@]1([H])[C@@](CCC3)(C)[C@]2([H])C(C=[C@@]([C@@H](C)C)CC2)=CC1	> 46
CC(=O)OCC(=O)[C@@]1(O)CC[C@H]2[C@@H]3CCC4=CC(=O)CC[C@]4(C)C3=CC[C@@]21C	> 46
CCN(CC)CCOC(=O)C(Cc1cccc2ccccc12)CC1CCCO1.O=C(O)C(=O)O (stereo unspecified)	> 46
Cl.Nc1ccc(/N=N/c2ccccc2)c(N)n1	> 46
C[C@@H]1C[C@H]2[C@@H]3C[C@H](F)C4=CC(=O)C=C[C@]4(C)[C@@]3(F)[C@@H](O)C[C@]2(C)[C@@]1(O)C(=O)CO	> 46
CC(=O)OCC(=O)C1CCC2C3CCC4CC(O)CCC4(C)C3C(=O)CC12C (stereo unspecified)	> 46
O=S(=O)(O)O.Oc1ccc(C(O)CNCCCCCCNCC(O)c2ccc(O)c(O)c2)cc1O (stereo unspecified)	> 46
CC12CCC(C[N+](C)(CCC[N+](C)(C)C)C1)C2(C)C.COS(=O)(=O)[O-].COS(=O)(=O)[O-] (stereo unspecified)	> 46
O=C1[O][Bi]([OH])[O]c2ccccc21	> 46
CC(=O)N(CC(C)C(=O)O)c1c(I)cc(I)c(N)c1I (stereo unspecified)	> 46
OCCO[C@@H]1[C@@H](O)[C@H](O)[C@@H](CO)O[C@@H]1O	> 46
CCCCC(O)c1ccccc1 (stereo unspecified)	> 46
Oc1ccc2c3c1O[C@H]1[C@@H](O)CC[C@@]4(O)[C@@H](C2)N(CC2CCC2)CC[C@]314	> 46
Cl.FC(F)(F)c1cccc(C2=CCN(CCc3ccc4ccccc4c3)CC2)c1	> 46
CCOc1cc(-c2nccc3cc(OC)c(OC)cc23)cc(OCC)c1OCC	> 46
CN(C)[C@@H]1C(O)=C(C(N)=O)C(=O)[C@@]2(O)C(O)=C3C(=O)c4c(O)ccc(Cl)c4[C@@](C)(O)[C@H]3C[C@@H]12.Cl	> 46
N#C/C(=C1\SCC(c2ccccc2Cl)S1)n1ccnc1 (stereo unspecified)	> 46

SMILES	IC50 [µM]
COc1cc2c(cc1OC)C1CC(=O)C(CC(C)C)CN1CC2 (stereo unspecified)	> 46
CS(=O)(=O)O.Cc1ccc2c(c1)c1c3n2CCNC3CCC1 (stereo unspecified)	> 46
C=CCc1ccc(O)c(OC)c1	> 46
CCN(CC)C(=O)N[C@@H]1C=C2c3cccc4[nH]cc(c34)C[C@@H]2N(C)C1	> 46
CN(C)CCc1c[nH]c2ccc(C[C@H]3COC(=O)N3)cc12	> 46
Cl.F/C(COc1ccc2c(c1)[nH]c1ccccc12)=C1\CN2CCC1CC2	> 46
COc1ccc(CN2CCNCC2)c(OC)c1OC.Cl.Cl	> 46
O=C1N([C@@H](CC8=CC=CC=C8)C(N3CCC[C@@]23[H])=O)[C@@]2(O)O[C@]([C@H](C)C)1N[C@]([C@@H]6C[C@]([C@]7([H])N(C)C6)([H])C5=C4C(C7)=CNC4=CC=C5)=O	> 46
CO[C@H]1C[C@@H]2CC[C@@H](C)[C@@](O)(O2)C(=O)C(=O)N2CCCC[C@H]2C(=O)O[C@H]([C@H](C)C[C@@H]2CC[C@@H](OC(=O)C(C)(CO)CO)[C@H](OC)C2)CC(=O)[C@H](C)/C=C(\C)[C@@H](O)[C@@H](OC)C(=O)[C@H](C)C[C@H](C)/C=C/C=C/C=C/1C	> 46
CCON=O	> 46
O=C1c2ccccc2C(=O)c2ccccc21	> 46
CC(Cc1ccccc1)NCc1ccccc1Cl.Cl (stereo unspecified)	> 46
Cc1onc(-c2ccccc2Cl)c1C(=O)N[C@@H]1C(=O)N2[C@@H]1SC(C)(C)[C@@H]2C(=O)[O-].[Na+]	> 46
O=c1cc[nH]c(=O)[nH]1	> 46
CCC(=O)c1ccc2c(c1)N(CCCN(C)C)c1ccccc1S2.Cl	> 46
C=CCN=C=S	> 46
CCCC(=O)O[C@]1(C(=O)COC(C)=O)CC[C@H]2[C@@H]3C[C@H](F)C4=CC(=O)C=C[C@]4(C)[C@@]3(F)[C@@H](O)C[C@@]21C	> 46
Oc1ccc(Cl)c2c1CCC2	> 46
CCCCCCCCCCCCCCC[C@H](O)[C@H](N)CO	> 46
O=c1[n-]c2[nH]c(=O)[nH]c(=O)c2[nH]1.[Na+]	> 46
Nc1ccc(S(=O)(=O)Nc2ncccn2)cc1	> 46
Cc1nnc2n1-c1ccc(Cl)cc1C(c1ccccc1)=NC2	> 46
C[C@@H]1O[C@@H](OC[C@H]2O[C@@H](Oc3c(-c4ccc(O)c(O)c4)oc4cc(O)cc(O)c4c3=O)[C@H](O)[C@@H](O)[C@@H]2O)[C@H](O)[C@H](O)[C@H]1O	> 46

SMILES	IC50 [µM]
O=C(C1=C2CCCC1)N(COC([C@H]3C([C@@H]3/C=C(C)\C)(C)C)=O)C2=O	> 46
O=[N+]([O-])c1ccc(F)c([N+](=O)[O-])c1	> 46
Cc1ncc([N+](=O)[O-])n1CC(C)O (stereo unspecified)	> 46
CC1CCCCN1CCCOC(=O)c1ccccc1.Cl (stereo unspecified)	> 46
Cc1ccccc1C(OCCN(C)C)c1ccccc1.O=C(O)CC(O)(CC(=O)O)C(=O)O (stereo unspecified)	> 46
CCNc1nc(Cl)nc(NCC)n1	> 46
CC(C)NC(=N)NC(=N)Nc1ccc(Cl)cc1.Cl	> 46
CN1C(=O)CN=C(c2ccccc2)c2cc([N+](=O)[O-])ccc21	> 46
CC(C)Cc1ccc(CC(=O)O)cc1	> 46
C[N+](C)(C)CC(O)CC(=O)[O-].Cl (stereo unspecified)	> 46
COc1cc(OC)cc(OC)c1	> 46
O=C(O)Cc1nn(Cc2ccc(Br)cc2F)c(=O)c2ccccc12	> 46
O=C(OC[C@H]1O[C@](O)(COC(=O)c2cccnc2)[C@@H](OC(=O)c2cccnc2)[C@@H]1OC(=O)c1cccnc1)c1cccnc1	> 46
CNCC(O)c1ccc(OC(=O)C(C)(C)C)c(OC(=O)C(C)(C)C)c1.Cl (stereo unspecified)	> 46
Cl.Cl.c1ccc(CNCCNCc2ccccc2)cc1	> 46
CCCN1CCC[C@@H]2Cc3nc(N)ncc3C[C@H]21	> 46
C/14=C(/C[C@H]([C@H]2[C@H]3[C@](CC[C@H]\12)([C@@](C#C)(O)CC3)C)C)CC(CC4)=O	> 46
Cc1cc(OI)c(C(C)C)cc1-c1cc(C(C)C)c(OI)cc1C	> 46
CNC(=O)[C@H](Cc1c[nH]c2ccccc12)NC(=O)[C@@H](CC(=O)NO)CC(C)C	> 46
CC(C)(C)NCC(O)c1cc(O)cc(O)c1.CC(C)(C)NCC(O)c1cc(O)cc(O)c1.O=S(=O)(O)O (stereo unspecified)	> 46
Cc1ccc(C(C)C)cc2c(C)ccc1-2	> 46
CN1CCN(C2=Nc3ccccc3Sc3ccc(Cl)cc32)CC1	> 46
